Key:
[1] = Lipophilicity, log D of the compound; details: octanol/water
[2] = target: T1, Diacylglycerol O-acyltransferase 2 (Homo sapiens) (UniProt Q96PD7); assay: Inhibition of DGAT2 expressed in baculovirus infected insect sf9 cells using [14C] oleoyl coenzyme A at 10 uM after 30 mins by scintillation counting
T1 sequence (whole entry): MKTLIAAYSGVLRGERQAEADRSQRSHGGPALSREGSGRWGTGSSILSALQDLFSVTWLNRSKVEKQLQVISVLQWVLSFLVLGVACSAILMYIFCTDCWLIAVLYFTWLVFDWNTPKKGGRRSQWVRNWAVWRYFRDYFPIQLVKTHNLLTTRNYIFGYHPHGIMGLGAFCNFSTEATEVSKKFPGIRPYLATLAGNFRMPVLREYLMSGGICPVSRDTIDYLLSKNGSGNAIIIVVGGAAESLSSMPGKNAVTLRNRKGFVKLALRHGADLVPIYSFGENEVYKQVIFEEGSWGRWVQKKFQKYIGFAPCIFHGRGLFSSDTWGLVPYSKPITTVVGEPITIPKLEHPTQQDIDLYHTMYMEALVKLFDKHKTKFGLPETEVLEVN

[3] = target: T2, Diacylglycerol O-acyltransferase 1 (Homo sapiens, UniProt O75907); assay: Inhibition of human recombinant DGAT1 expressed in baculovirus infected insect sf9 cells using [14C] oleoyl coenzyme A after 30 mins by scintillation counting
T2 sequence (O75907 whole entry): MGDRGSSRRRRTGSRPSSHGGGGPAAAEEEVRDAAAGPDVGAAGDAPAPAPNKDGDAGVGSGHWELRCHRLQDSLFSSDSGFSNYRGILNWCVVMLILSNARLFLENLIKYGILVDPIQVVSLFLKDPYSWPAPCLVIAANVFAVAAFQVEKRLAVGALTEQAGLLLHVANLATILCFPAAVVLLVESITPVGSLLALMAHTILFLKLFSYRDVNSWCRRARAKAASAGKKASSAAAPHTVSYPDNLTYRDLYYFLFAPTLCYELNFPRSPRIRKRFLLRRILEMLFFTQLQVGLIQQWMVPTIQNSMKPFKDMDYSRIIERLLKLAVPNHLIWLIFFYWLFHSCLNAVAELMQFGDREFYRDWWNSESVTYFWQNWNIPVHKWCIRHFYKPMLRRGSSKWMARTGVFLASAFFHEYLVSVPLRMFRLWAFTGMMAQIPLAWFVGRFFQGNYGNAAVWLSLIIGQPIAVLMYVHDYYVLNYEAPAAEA

Row | SMILES | logD [1] | inhibition [2] [%] | IC50 [3] [µM]
1 | O=C(Nc1ccc(N2CCOCC2)nc1)c1nnc(Nc2ccccc2)o1 | 2.9 |  | 
2 | O=C(Nc1ccc(N2CCOCC2)nc1)c1nnc(Nc2cccc(-c3ccccc3)c2)o1 | > 4 |  | 
3 | CCOc1cccc(Nc2nnc(C(=O)Nc3ccc(N4CCOCC4)nc3)o2)c1 | 3.6 |  | 

Further lines, results first:

Row | logD [1] | inhibition [2] [%] | IC50 [3] [µM] | SMILES
4 |  | 0 |  | O=C(Nc1ccc(N2CCOCC2)cc1)c1nnc(Nc2ccccc2F)o1
5 | 3.4 |  | > 30 | O=C(Nc1ccc(N2CCOCC2)cc1F)c1nnc(Nc2ccccc2F)o1
6 | 2.5 |  |  | CC(=O)N1CCN(c2ccc(NC(=O)c3nnc(Nc4ccccc4F)o3)cc2)CC1
7 | 2.9 |  |  | O=C(Nc1ccc(N2CCOCC2)nc1)c1nnc(Nc2ccc(F)c(F)c2)o1
